Patent US12049638B2, “Synthetic genetic elements for biomanufacture” (Janssen Biotech, Inc., priority 2019, dated 2024)

B1: SR21 recombinase: putative serine recombinase from Bacillus safensis strain CCMA-560, SEQ ID NO:2, expressed from plasmid P175 (protein)
chain: MELKHIVNSYNVTKIIGYLRRSRQDVEREKRTGEDTLTEQKELMNKILTGIEIPYETRTEIGSGESIEGRPVFKSCLADLRSGKFQAIAVKEITRLSRGSYSDAGEIVNLLNEKRIIIITPYKIYDPRNPVDARQIRFELFMAREEFEMTRERMNGAKFTYAAQGKWISGLAPFGYKLNKRTSRLEPSDEDKVVVKLIFDIFLNGLDGKDLSYTAIATHLSKLQFTTPRGGKRWSKDTVRKILQNEAYMGRVRYKARETTKDGKKVFRPESEHIVVDDAHEPIINKEDFEAVQEKIKNKVPLLPVVTSYEPNELAGICVCSVCGKSLQKFESEYNRKNKDGTSSYFHVKLLICKINKCTSVRYEYVEEAILEYLEQLIALENNKLKAIIEKSMEAAETNNSEKTSEQMLVQANQKQKELENKLTFIFEKFESGIYTDEMFLQRKAAIEKEVADIKKLKQELSMTFEVKEKDVNEFRVNISDVVKFYKESKSRGLKNEKLRSIFDFIVLEMTEKRRGPIPAKFNIYPVLRIPSVVN
modifications: SR21 Recombinase (WP_029708089.1) Protein Sequence

Legend:
adenovirus infection = settings: cited from earlier work
P600-PEAK-Rapid cells = assay: AAV production from P600 stable pool after Ad5-CMV-SR21 infection, with 2-aminopurine, ddPCR mCherry assay; assay type: cell-based, human
Protocol: ddPCR quantitation was based on the method described by Lock et al. (2014) Human Gene Therapy methods 23: 115-125. Two 1 of the lysate was DNAse digested in 20 reactions containing 1× PCR buffer+20 mM Tris pH 8.5+8 units DNAse I at 37° C. for 1 hour 96-well plates in a thermocycler. 2 μl of the DNAse digested samples were diluted with 98 Virus Dilution Buffer (VDB) and 2 μl of this dilution was added to ddPCR reactions containing 1× PCR SuperMix+1× PCR Primer/Probe for the mCherry transgene (See Materials section). ddPCR droplets were formed using the Bio-Rad automated droplet maker. PCR cycling was as follows: 95° C. 10 min; 42× (94° C. 30s, 60° C. 1 min, 72° C. 15s all three at cycling time of 2° C. per s); 98° C. 10 min; 4° C. hold. FAM fluorescence was detected on the Bio-Rad droplet reader as per manufacturer's instructions. The clones that produced the highest DNAse-resistant particles as detected as FAM-fluorescence positive droplets were subjected to expansion and further screening.
Construct P600 was transfected into Peak-RAPID cells and a stable pool was generated through selection with 0.5 μg/ml puromycin essentially as described for P439 cells above. Cells were passed 1:10 for 6 weeks prior to assaying AAV production.
2.5E6 P600-PEAK-Rapid p6 cells were plated into three T25 flasks in 5 mls DMEM+10% FBS and incubated for three days at 37° C. The cells density on the day of infection was determined to be 6.6E6 viable cells in one of the flasks where cells were recovered with TrypLE and counted using Trypan blue exclusion. Media in the two remaining flasks were replaced with […] DMEM+2% FBS containing 2.6E8 Ad5-CMV-SR21 virus particles. The flasks were incubated for 24 hours at 32° C. […] One ml of DMEM+2% FBS was added to the other flask, and both flasks were incubated at 32° C. for 7 additional days. Media was recovered from the flasks, centrifuged at 3,000 rpm for 5 minutes to pellet cells and debris. 2 μl of each sample supernatant was subjected to DNAse digestion and ddPCR quantitation using the mCherry assay as described above.

[1] = system: recombinase reporter plasmid (P41) with SR21 attP and attB signals; assay: Recombinase reporter assay (Dual Glo firefly/Renilla luciferase) in transfected HEK293 cells; assay type: cell-based, human
Text: A vector (P175) (SEQ ID NO:10) was constructed by Gene Synthesis (GENEWIZ, Plainfield, N.J.) to express SR21 recombinase in mammalian cells under control of the CMV promoter and followed by an SV40 polyadenylation signal. The SR21 recombinase open reading frame is the same as SEQ ID NO:3 except that the bacterial translation initiation codon “TTG” is replaced by an “ATG”, and three point-mutations were introduced to destroy restriction endonuclease recognition sites.
A recombinase reporter plasmid (P41) was also constructed by gene synthesis (GENEWIZ, Plainfield, N.J.) (SEQ ID NO:11; FIG. 4). It encodes a constitutively expressed green fluorescent protein (GFP)—self-cleaving F2A—Renilla luciferase (rLUC) fusion protein driven by the EF1α promoter. It also encodes recombinase activated—mCherry-self cleaving P2A-firefly luciferase (fLUC) reporter gene flanked by SR21 attP (SEQ ID NO:7) and attB (SEQ ID NO:9) signals in the antisense orientation relative to the CMV promoter. When SR21 recombinase recombines the attP and attB signals, the coding region is inverted into the sense orientation and the mCherry-P2A-fLUC protein is expressed (See FIG. 4).
To measure SR21 recombinase activity in human cells, 75,000 HEK293 cells were plated into each well of 96-well tissue culture plates in 100 of high-glucose DMEM+10% Fetal Bovine Serum. The recombinase reporter plasmid (P041) the SR21 Recombinase expression plasmid (P175)+[…] (to normalize DNA amounts) were complexed with Fugene-HD transfection reagent in OptiMEM medium for 15 minutes at room temperature as shown in Table 1 and transfected into triplicate wells of the plated cells. Plates were incubated at 37° C. for 48 hours.
Firefly Luciferase (fLUC) and Renilla luciferase (rLUC) was assayed sequentially in transfected wells using the Dual Glo assay kit from Promega. Medium was removed from the transfected wells of the tissue culture plate and 100 μl of a 1:1 mixture of DMEM medium (without phenol red) and the Dual Glo luciferase+fLUC substrate was added. The plate was incubated at room temperature for 10 minutes. The lysate was transferred to an opaque white 96-well plate. fLUC activity was measured using the Envision multilabel reader. Next, 50 μl per well of the Stop-and-Glo buffer+Renilla substrate was added and the plate was incubated with gentle shaking for 10 minutes. The Renilla luciferase signal was read on the same Envision reader.

[2] = system: Stop Cassette of vector P439 (attP/attB); assay: Stop Cassette removal by SR21 Recombinase, co-transfection of P439 and P175, PCR and sequencing; assay type: cell-based, human; settings: PEAK-Rapid cells, three days; PCR product sequenced; attL produced
Protocol: Media was removed, cells were washed once with D-PBS and then incubated with TrypLE for 5 minutes at 37° C. Cells were transferred to a sterile microfuge tube, pelleted by centrifugation, washed once with 1 ml D-PBS and pelleted again. Episomal plasmids were recovered by alkaline lysis using the Qiagen Spin Miniprep kit designed for isolating plasmids from bacteria.
To destroy unrecombined plasmid DNA, an aliquot of the recovered DNA was digested with enzyme Spe I-HF in 1× CutSmart Buffer at 37° C. Ihour and 80° C. 20 minutes. The recovered DNA was subjected to PCR amplification with primers P349F3 (SEQ ID NO:32) and P349R9 (SEQ ID NO:33) using NEXT Ultra II Q5 Master Mix with the following cycling conditions: 98° C. 1 min; 35× (98° C. 10s, 72° C. 10s); 5 min 72° C. A single PCR product of the predicted size was observed when subjected to electrophoresis on a 1% agarose gel. The PCR product was purified by size exclusion chromatography using a CHROMA SPIN™+TE-1000 Column. The PCR product was sequenced using the same primers used for PCR (GeneWiz).

Molecule | cytopathic effect of adenovirus infection (adenovirus infection; 10 mM 2-AP treatment 1-2 hours post infection) | toxicity to cells (adenovirus infection; 10 mM 2-AP, for at least three days) | AAV GC/Cell (P600-PEAK-Rapid cells; DMEM + 2% FBS + 1.25 mM 2-AP added 24 hours post infection, 32° C., 7 additional days, media) | effect on AAV production (P600-PEAK-Rapid cells; concentrations above 1.25 mM and addition earlier than 24 hours) | increase in AAV virus production (P600-PEAK-Rapid cells; in the presence of 2-aminopurine versus without, P600 stable pool) | rLUC ([1]; 100 ng P41 reporter + 100 ng P175, 48 hours, constitutive Renilla luciferase (transfection efficiency)) | fLUC ([1]; 100 ng P41 reporter + 100 ng P175 recombinase expression plasmid, 48 hours) | Fold-Increase in fLUC Activity ([1]; reporter + recombinase expression plasmid versus reporter + deoxynucleotides) | SR21 recombinase activity in human cells ([1]; representative of three independent experiments) | removal of STOP cassette from plasmid P439 by recombining attP and attB [2]
Nc1ncc2[nH]cnc2n1 [2-AP, 2-aminopurine] | blocked | nontoxic | 59,356 ± 11,026 GC/Cell | inhibitory | 2.5 fold |  |  |  |  | 
B1 |  |  |  |  |  | 3.4E06 ± | 6.6E06 ± | 1535 fold | highly active | precisely removed
